# Assay results: patent US7645882B2, “Inhibitor of protein modification products formation” (priority 2003, dated 2010)
# Key:
# [1] = test system: middle cerebral artery ischemia-reperfusion model; assay: Cerebroprotective action in middle cerebral artery ischemia-reperfusion model; type: in vivo, rat
# Experimental: CD(SD)IGS male rats (Japan Charles river Kabushiki kaisha, Hino farm, room No. 22, specific product) (8 rats per one group) having body weight 270 to 350 g were anesthetized by 2% isoflurane (mixed bas comprising of 70% N2O (laughter gas) and 30% O2) to immobilize, and then the rats were put on warming plate to keep the rectal and brain temperature 37 to 38° C. After that, to observe the stability in the examination, cannula which was made by polyethylene (PE-50, Becton Dickinson) was inserted and left in caudal artery of said animal, and this made blood drawing and blood pressure determining to monitor the biochemical parameter such as blood sugar level, hematocrit, CO2 concentration, oxygen partial pressure, pH, blood pressure and etc. In addition, cerebral blood flow in cortex was determined by laser doppler fluorometry (Neuroscience.inc: OMEGA FLOW (FLO-C1)), putting the detection site directly on cranium on the point left 4 mm from bregma. Left neck of such animal was incised, and from internal and external carotid fork of common carotid artery to upstream of internal carotid, nylon surgical thread (length 16 mm, diameter 0.2 to 0.3 mm, with silicon coating on its tip 3 mm) was passed and left, middle cerebral artery was obstructed for 2 hours. After that, the thread was removed to release the middle cerebral artery, and blood was reperfused for 21 hours. To each animals, 3.0 mg/kg of edaravone (control) and 5.58 mg/kg of TM-2002 were respectively administered twice by cannula which is left in caudal artery 5 minutes and 5 hours after middle cerebral artery occlusion. After said operation, the brain was removed from said animal, and after preparing 7 brain slices with 2 mm thickness, to TTC stain (0.8 g of 2,3,5-triphenyltetrazolium chloride (Sigma) dissolved in 40 ml of saline) were soaked at 37° C. for 15 minutes to stain, the area of infarction and fixed by 10% neutral formalin liquid to prepare specimen. Such specimens were created the image by CCD camera respectively, and analysed according to method of Swanson et al. (J Cereb Blood Flow Metab 10:290-293; 1994). […] Furthermore, function recovering was estimated before and after the operation by rotor rod test that estimates how much they can walk on rotating rotor.
# [2] = test system: rat carotid balloon injury model; assay: Vascular endothelial thickening inhibiting effect in rat carotid balloon injury model; type: in vivo; conditions: oral 50 mg/kg twice daily (hydrochloride), 15 days, aminoguanidine hydrochloride 45 mg/kg twice daily as positive control
# Experimental: vascular endothelial thickening inhibiting effect in rat carotid balloon injury model, which is post-vasodilatory operation restenosis model.
# TM-2002 was suspended in sodium carboxymethylcellulose aqueous solution (CMC) (0.5%) using mortar and prepared to the concentration of 12.5 mg/mL using measuring cylinder.
# Aminoguanidine hydrochloride (Sigma) was used as positive control, suspended in CMC aqueous solution (0.5%) using mortar in the same manner, and prepare to the concentration of 11.25 mg/mL using measuring cylinder. Each preparation was formed when use it to administer orally coercively using disposable injection and oral sonde with suspending. […]
# While testing, the alive and the condition of wound were observed everyday. The body weight was measured once a day from the day before injury to 14 day after balloon injury. The dose of each individuals were calculated by their body weight.
# The blood samples were obtained from abdomen vena cava under anesthesia by ether on 15 day after balloon injury. […] The area of intravascular lumen, the area surrounded by internal elastic lamina and the area surrounded by external elastic lamina was calculated using image analyzer (VM-30, Olympus photology).
# For each sections (3 region), the area of neointimal, media and neointimal/media rate of blood vessel was calculated from the measured area. […]
compound,measurement,setting,value
"Cc1ncc2c(c1O)C(c1c(C)nn(-c3ccccc3)c1O)OC2 (stereo not drawn) [compound 68, 1-(5-hydroxy-3-methyl-1-phenyl-1H-pyrazol-4-yl)-6-methyl-1,3-dihydro-furo[3,4-c]pyridin-7-ol]",cerebral infarction nest,"[1]; 2 hours occlusion, 21 hours reperfusion, edaravone 3.0 mg/kg, TM-2002 5.58 mg/kg, twice (5 minutes and 5 hours after occlusion), vs excipient",significantly reduced
same,improvement for nervous condition and recovering the function,[1]; compared to excipient single administration,remarkably shown
same,intimal thickening inhibiting effect,[2],intimal thickening inhibiting effect equal to aminoguanidine group
